These results are taken from US7037656B2, “Methods and compositions for identifying ligands for nuclear receptors” (priority 2000, dated 2006).

For test [1], the target named is T1, Aa AB EcR/Aa USPa and SMRT (Aedes aegypti, UniProt P49880).
T1 construct: human ubiquitin (76 aa) (N, cleaved yes); expressed in transfected cells; host or cells: yeast (Saccharomyces cerevisiae)
As to the kind of experiment: Yeast 6x EcRE-lacZ reporter assay with SMRT (ligand-dependent down regulation). In kind it is cell-based. To be noted: 10 μM; Aa AB EcR/Aa USPa co-expressed with SMRT, constitutive reporter expression without ligand (FIG. 10A). An excerpt: FIGS. 10A and 10B are graphs showing the roles of the coactivators and co-repressors in transactivation of AaΔEcR. Interaction of different transcriptional factors in combination with the heterodimers AaΔEcR/USPa or AaΔEcR/USPb (FIG. 10A). […] The yeast strains carrying the reporter plasmid which contains 6 EcRE response elements coupled with E. coli β gal gene in combination with the presence of different plasmids for expression of different USPs, AaΔEcR and coactivators/repressors. The final concentration of all ecdysteroid analogues was 10 μM. The data are presented as a median set of at least 8 independent experiments plus SD.
Briefly, yeast cells are cultured in 5 mL of YPD liquid medium overnight at 30° C. The cell culture was diluted 1:20 in YPD media and further grown until cell density reached an O.D of 0.6. at OD600. The cells were pelleted by centrifugation and washed with 10 mL of TE+0.1M lithium acetate. Cells are then resuspended in 10 mL TE+0.1M lithium acetate and incubated at 30° C. for 1 hour. Cells are collected and resuspended in 0.5 mL of TE+ 0.1M lithium acetate. Aliquots of cells (50 μL), were incubated for 15 minutes at 30° C. with 1–2 μg plasmid DNA in the presence of 5 μg of denatured salmon sperm DNA as DNA carrier. In the case of co-transformation, the indicated plasmids were added simultaneously. […]
On the technique in general: Reporter assays use an easily measured gene product as a stand-in for the process of interest.

For test [2], the target named is T2, Cf ΔA/B EcR + Cf ΔA/B USP + GRIP1 (Choristoneura fumiferana, UniProt O77240).
T2 construct: human ubiquitin (76 aa) (N, cleaved yes); expressed in transfected cells; host or cells: yeast (Saccharomyces cerevisiae)
As to the kind of experiment: Yeast 6x EcRE-lacZ β-galactosidase transactivation assay. In kind it is cell-based. Particulars: RH 5992 10 μM, 4 hours, DMSO control 0.200. The method, then: Briefly, yeast cells are cultured in 5 mL of YPD liquid medium overnight at 30° C. The cell culture was diluted 1:20 in YPD media and further grown until cell density reached an O.D of 0.6. at OD600. The cells were pelleted by centrifugation and washed with 10 mL of TE+0.1M lithium acetate. Cells are then resuspended in 10 mL TE+0.1M lithium acetate and incubated at 30° C. for 1 hour. Cells are collected and resuspended in 0.5 mL of TE+ 0.1M lithium acetate. Aliquots of cells (50 μL), were incubated for 15 minutes at 30° C. with 1–2 μg plasmid DNA in the presence of 5 μg of denatured salmon sperm DNA as DNA carrier. In the case of co-transformation, the indicated plasmids were added simultaneously. 50% polyethyleneglycol of molecular weight 4000, diluted in TE, was added to a final concentration of 35%. DMSO was added to the transformation solution simultaneously to a final concentration 3%. The samples were mixed well by vortexing and incubated for an additional 30 minutes at 30° C. The cell mixture is then heated for 15 minutes at 42° C. Cells were then collected and plated onto appropriate yeast selective media. Transformants of 4 plasmids are selected on the complete media without tryptophan, uracil, leucine and histidine.
The yeast cells grown overnight in selective liquid media at 30° C. were diluted in prewarmed liquid selective media to 0.1 at OD600 (ODculture). […]

Where “and” joins values, the source holds several entries; their conditions need not be identical. Identical values can stand only once.

T2 sequence (O77240 entry or part of it, stated change not applied): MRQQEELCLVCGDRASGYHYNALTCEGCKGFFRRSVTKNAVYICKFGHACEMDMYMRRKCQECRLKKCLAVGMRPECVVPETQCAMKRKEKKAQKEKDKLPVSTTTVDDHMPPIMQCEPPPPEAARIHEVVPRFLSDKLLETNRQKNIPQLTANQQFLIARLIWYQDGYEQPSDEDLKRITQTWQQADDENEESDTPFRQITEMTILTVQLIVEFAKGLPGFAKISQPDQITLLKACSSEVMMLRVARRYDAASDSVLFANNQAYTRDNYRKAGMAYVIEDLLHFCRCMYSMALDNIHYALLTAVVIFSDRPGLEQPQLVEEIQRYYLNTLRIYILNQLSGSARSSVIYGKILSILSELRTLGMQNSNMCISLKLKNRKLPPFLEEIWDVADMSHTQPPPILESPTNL
T2 sequence (O76202 with tags, fused parts or gaps partner): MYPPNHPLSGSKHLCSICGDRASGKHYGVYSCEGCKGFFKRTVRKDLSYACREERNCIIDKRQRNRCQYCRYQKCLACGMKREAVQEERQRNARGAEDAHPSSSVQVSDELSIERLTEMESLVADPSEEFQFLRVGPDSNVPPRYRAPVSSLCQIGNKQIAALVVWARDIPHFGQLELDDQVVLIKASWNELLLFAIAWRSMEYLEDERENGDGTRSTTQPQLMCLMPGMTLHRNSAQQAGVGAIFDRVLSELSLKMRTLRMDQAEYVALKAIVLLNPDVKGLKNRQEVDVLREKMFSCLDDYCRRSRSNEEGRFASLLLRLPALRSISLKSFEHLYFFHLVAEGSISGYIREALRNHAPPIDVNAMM
T1 sequence (P49880 with tags, fused parts or gaps): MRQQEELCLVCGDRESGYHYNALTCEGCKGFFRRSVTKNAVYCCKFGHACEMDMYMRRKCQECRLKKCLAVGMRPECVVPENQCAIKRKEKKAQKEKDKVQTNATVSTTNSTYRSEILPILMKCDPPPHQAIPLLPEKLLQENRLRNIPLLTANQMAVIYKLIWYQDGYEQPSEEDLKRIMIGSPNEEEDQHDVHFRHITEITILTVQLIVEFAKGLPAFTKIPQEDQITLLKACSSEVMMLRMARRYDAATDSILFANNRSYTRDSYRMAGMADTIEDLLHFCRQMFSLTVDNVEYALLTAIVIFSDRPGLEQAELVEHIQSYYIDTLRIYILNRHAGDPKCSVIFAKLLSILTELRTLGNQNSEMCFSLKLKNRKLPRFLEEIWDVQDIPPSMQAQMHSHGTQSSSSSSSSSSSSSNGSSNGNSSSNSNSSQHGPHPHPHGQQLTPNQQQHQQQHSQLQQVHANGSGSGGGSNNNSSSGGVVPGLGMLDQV

With `CCc1ccc(C(=O)NN(C(=O)c2cc(C)cc(C)c2)C(C)(C)C)cc1` [RH 5992, tebufenozide], the “effect on reporter gene expression (in words)” value in test [1] was “suppression of the levels of reporter gene expression”. Also, the β-galactosidase activity in test [2] is 2.500 and 3.000.
